Assay in all cases: Minimum Inhibitory Concentration (MIC), agar dilution, standard strains
Settings in all cases: Table 1; Mueller-Hinton agar, 37° C., 20 hours

The test system of assay [1] is E. faecalis L239. Type of assay: cell-based. As for the experimental part:
(§1) Minimum Inhibitory Concentration (MIC)
(§2) The effectiveness of the compound according to the present invention was determined by obtaining Minimum Inhibitory Concentration (MIC) of the compounds prepared by the above Examples (I-1 to I-33) and vancomycin, which is the known compound having a potent activity against gram-positive strains, as the control drug against the standard strains. Specifically, Minimum Inhibitory Concentration was obtained by diluting the test material with a double dilution method, dispersing them in Mueller-Hinton agar medium, inoculating each of the test strain having 10^7 cfu (colny forming unit) in an amount of 2:1 to the medium and then incubating them at 37° C. for 20 hours.

Assay [2] relates to S. epidermidis R005. The format is cell-based. Here is the method:
as §1, §2

Assay [3] relates to Staphylococcus aureus giorgio. Type of assay: cell-based. As for the experimental part:
as §1, §2

Assay [4] concerns S. aureus 77. The format is cell-based, Staphylococcus aureus. As for the experimental part: as §1, §2
Assay [5] concerns S. aureus 241. The format is cell-based, Staphylococcus aureus. Here is the method: as §1, §2

With `CN(CC(=O)N[C@@H]1C(=O)N2C(C(=O)O)=C(SCSc3cc(N)nc(N)n3)CS[C@H]12)c1cc(Cl)ccc1Cl` [Example I-6, (6R,7R)-3-({[(2,6-diamino-4-pyrimidinyl)sulfanyl]methyl}sulfanyl)-7-({2-[2,5-dichloro(methyl)anilino]acetyl}amino)-8-oxo-5-thia-1-azabicyclo[4.2.0]oct-2-ene-2-carboxylic acid], the “Minimum Inhibitory Concentration (MIC), E. faecalis L239” value in assay [1] is on record as 4 :g/ml. Also, in assay [2], the “Minimum Inhibitory Concentration (MIC), S. epidermidis R005” value is 0.5 :g/ml. Moreover, the “Minimum Inhibitory Concentration (MIC), Staphylococcus aureus giorgio” value in assay [3] is 0.031 :g/ml. The “Minimum Inhibitory Concentration (MIC), S. aureus 77” value in assay [4] was 0.5 :g/ml. Also, the “Minimum Inhibitory Concentration (MIC), S. aureus 241” value in assay [5] is given as 8 :g/ml.
Turning to `Cc1c(N)nc(SCSC2=C(C(=O)O)N3C(=O)[C@@H](NC(=O)CSc4cc(Cl)ccc4Cl)[C@H]3SC2)nc1N` [Example I-18, (6R,7R)-3-({[(4,6-diamino-5-methyl-2-pyrimidinyl)sulfanyl]methyl}sulfan-yl)-7-({2-[(2,5-dichlorophenyl)sulfanyl]acetyl}amino)-8-oxo-5-thia-1-azabicyclo[4.2.0]oc-t-2-ene-2-carb oxylic acid], the “Minimum Inhibitory Concentration (MIC), E. faecalis L239” value in assay [1] is reported as 0.5 :g/ml. In addition, the “Minimum Inhibitory Concentration (MIC), S. epidermidis R005” value in assay [2] is 0.25 :g/ml. Besides, the “Minimum Inhibitory Concentration (MIC), Staphylococcus aureus giorgio” value in assay [3] is on record as 0.016 :g/ml. For the same compound, the “Minimum Inhibitory Concentration (MIC), S. aureus 77” value in assay [4] was 0.25 :g/ml. Besides, the “Minimum Inhibitory Concentration (MIC), S. aureus 241” value in assay [5] is listed as 4 :g/ml.
`Nc1nc(SCSC2=C(C(=O)O)N3C(=O)[C@@H](NC(=O)CSc4cc(Cl)ccc4Cl)[C@H]3SC2)nc2c1CCC2` [Example I-9, (6R,7R)-3-({[(4-amino-6,7-dihydro-5H-cyclopenta[d]pyrimidin-2-yl)sulfany-1]methyl}sulfanyl)-7-({2-[(2,5-dichlorophenyl)sulfanyl]acetyl}amino)-8-oxo-5-thia-1-aza-bicyclo[4.2.0]oct-2-ene-2-carboxylic acid]: the “Minimum Inhibitory Concentration (MIC), E. faecalis L239” value in assay [1] is 0.25 :g/ml. The “Minimum Inhibitory Concentration (MIC), S. epidermidis R005” value in assay [2] is reported as 0.25 :g/ml. The “Minimum Inhibitory Concentration (MIC), Staphylococcus aureus giorgio” value in assay [3] is reported as <0.008 :g/ml. Also, in assay [4], the “Minimum Inhibitory Concentration (MIC), S. aureus 77” value is on record as 0.25 :g/ml. The “Minimum Inhibitory Concentration (MIC), S. aureus 241” value in assay [5] is recorded as 4 :g/ml.
For `Nc1cc(SCSC2=C(C(=O)O)N3C(=O)[C@@H](NC(=O)CNc4cc(Cl)ccc4Cl)[C@H]3SC2)nc(N)n1` [Example I-5], the “Minimum Inhibitory Concentration (MIC), E. faecalis L239” value in assay [1] is listed as 1 :g/ml. The “Minimum Inhibitory Concentration (MIC), S. epidermidis R005” value in assay [2] is given as 0.5 :g/ml. Further, the “Minimum Inhibitory Concentration (MIC), Staphylococcus aureus giorgio” value in assay [3] is on record as 0.016 :g/ml. Moreover, in assay [4], the “Minimum Inhibitory Concentration (MIC), S. aureus 77” value is 0.5 :g/ml. For the same compound, the “Minimum Inhibitory Concentration (MIC), S. aureus 241” value in assay [5] was 8 :g/ml.
Regarding “(6R,7R)-2,4-diamino-6-[({[2-carboxy-7-({2-[(2,5-dichlorophenyl)sulfany-1]acetyl}amino)-8-oxo-5-thia-1-azabicyclo[4.2.0]oct-2-en-3-yl]sulfanyl}methyl)sulfanyl]-1-methylpyrimidi n-1-ium [Example I-15]”, in assay [1], the “Minimum Inhibitory Concentration (MIC), E. faecalis L239” value was 0.25 :g/ml. For the same compound, the “Minimum Inhibitory Concentration (MIC), S. epidermidis R005” value in assay [2] is 0.13 :g/ml. The “Minimum Inhibitory Concentration (MIC), Staphylococcus aureus giorgio” value in assay [3] is <0.008 :g/ml. Besides, the “Minimum Inhibitory Concentration (MIC), S. aureus 77” value in assay [4] was 0.13 :g/ml. In addition, the “Minimum Inhibitory Concentration (MIC), S. aureus 241” value in assay [5] is recorded as 1 :g/ml.

Source of the values: patent US20030166922A1, “Novel cephalosporin compounds and process for preparing the same” (priority 2000, published 2003).
